Assay results taken from PMC7413254 (Nature Communications, 2020).
Read-outs that look alike come from different tables or passages of the source.

Legend:
PfCRT^3D7 [1] = molecular target: T1, PfCRT^3D7 (Plasmodium falciparum, UniProt Q8IBZ9); assay: cell-based; type: cell-based; conditions: PfCRT3D7 oocytes, total [3H]CQ transport, normalised to the oocyte type control
Procedure, shortened: (§1)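 Transport runs from the acidic bath into the cytosol, analogous to PfCRT-mediated efflux out of the vacuole. Non-expressing oocytes act as background.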

PfCRT^Ecu1110 [2] = molecular target: T2, PfCRT^Ecu1110 (Plasmodium falciparum, UniProt Q9N623, A220S/I356L/K76T/N326D); assay: cell-based; type: cell-based; conditions: for Uptake of [3H]CQ (% PfCRTEcu1110 control), trans-stimulation / PfCRT-mediated [3H]CQ transport, trans-stimulation (% PfCRTEcu1110 control): PfCRTEcu1110 oocytes; for Uptake of [3H]CQ (% PfCRTEcu1110 control), trans-stimulation: total [3H]CQ transport, normalised to the oocyte type control; for PfCRT-mediated [3H]CQ transport, trans-stimulation (% PfCRTEcu1110 control): normalised to oocyte type control; for [3H]CQ transport (% PfCRTDd2 control), trans-stimulation, PfCRTEcu1110: PfCRT-mediated component (background subtracted), sheet title says normalised to PfCRTDd2 control, mean ± SEM, SEM
T2 sequence (Q9N623 whole entry A220S/I356L/K76T/N326D): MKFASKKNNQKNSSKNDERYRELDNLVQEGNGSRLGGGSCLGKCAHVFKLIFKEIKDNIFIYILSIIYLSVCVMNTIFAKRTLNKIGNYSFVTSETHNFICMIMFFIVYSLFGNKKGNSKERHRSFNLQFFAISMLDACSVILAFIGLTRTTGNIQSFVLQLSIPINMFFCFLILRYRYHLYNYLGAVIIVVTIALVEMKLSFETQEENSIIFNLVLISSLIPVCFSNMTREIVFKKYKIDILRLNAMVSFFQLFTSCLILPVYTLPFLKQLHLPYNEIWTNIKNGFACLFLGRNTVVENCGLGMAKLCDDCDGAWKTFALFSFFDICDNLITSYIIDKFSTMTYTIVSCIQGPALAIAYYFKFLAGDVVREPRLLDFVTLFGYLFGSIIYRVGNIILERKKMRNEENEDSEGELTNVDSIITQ
Procedure, shortened: (§2)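 Oocytes (ten per treatment, ≥4 independent frogs/days) were preloaded by injecting VF-6 in 25 nL ND96 at pH 5.0, 5.5, 6.0 or 7.0, or Na^+-free choline buffer, then uptake run 1.5 h, 27.5 °C, ND96 pH 5.5 by default. Internal concentrations assumed ~400 nL oocyte volume.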

PfNT1 = molecular target: T3, PfNT1 (Plasmodium falciparum, UniProt Q8IDM6); assay: cell-based; type: cell-based; conditions: PfNT1 oocytes, total [3H]CQ transport, normalised to the oocyte type control
T3 construct: expressed in transfected cells; host or cells: Xenopus laevis oocytes (stage V-VI), cRNA-injected
T3 sequence (Q8IDM6 whole entry): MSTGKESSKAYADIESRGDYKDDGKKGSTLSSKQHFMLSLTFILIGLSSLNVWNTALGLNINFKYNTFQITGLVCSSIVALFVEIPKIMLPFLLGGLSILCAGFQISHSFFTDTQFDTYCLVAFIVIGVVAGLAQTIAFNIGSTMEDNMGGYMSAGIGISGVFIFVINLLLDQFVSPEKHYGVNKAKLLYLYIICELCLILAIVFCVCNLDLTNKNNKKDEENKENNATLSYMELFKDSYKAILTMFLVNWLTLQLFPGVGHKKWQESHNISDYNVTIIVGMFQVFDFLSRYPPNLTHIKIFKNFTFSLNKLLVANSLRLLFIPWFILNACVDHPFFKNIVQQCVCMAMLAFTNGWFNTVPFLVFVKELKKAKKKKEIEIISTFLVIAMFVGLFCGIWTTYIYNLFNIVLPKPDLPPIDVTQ
Procedure, shortened: as §2

PfCRT^Dd2 [3] = molecular target: T4, PfCRT^Dd2 (Plasmodium falciparum, UniProt Q9N623, A220S/I356T/K76T/M74I/N326S/N75E/Q271E/R371I); assay: cell-based; type: cell-based; conditions: for PfCRT-mediated [3H]CQ transport, trans-stimulation (% PfCRTDd2 control): normalised to oocyte type control; for [3H]CQ transport (% PfCRTDd2 control), trans-stimulation, PfCRTDd2: PfCRT-mediated component (background subtracted), mean ± SEM, SEM
T4 sequence (Q9N623 whole entry A220S/I356T/K76T/M74I/N326S/N75E/Q271E/R371I): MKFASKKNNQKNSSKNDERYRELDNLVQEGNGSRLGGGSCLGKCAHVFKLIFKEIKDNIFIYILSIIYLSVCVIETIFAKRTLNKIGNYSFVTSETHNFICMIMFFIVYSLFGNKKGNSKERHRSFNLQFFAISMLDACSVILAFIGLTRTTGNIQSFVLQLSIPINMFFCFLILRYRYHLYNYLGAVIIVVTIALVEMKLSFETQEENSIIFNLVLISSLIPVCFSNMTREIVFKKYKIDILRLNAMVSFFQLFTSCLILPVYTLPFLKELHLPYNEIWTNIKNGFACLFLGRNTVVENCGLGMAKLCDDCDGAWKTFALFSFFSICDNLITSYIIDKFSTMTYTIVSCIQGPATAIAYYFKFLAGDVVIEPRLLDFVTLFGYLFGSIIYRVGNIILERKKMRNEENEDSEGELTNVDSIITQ
Procedure, shortened: as §2

PfCRT^3D7 [4] = molecular target: T1, PfCRT^3D7; assay: cell-based; type: cell-based; conditions: PfCRT3D7 oocytes; for Uptake of [3H]CQ (% PfCRT3D7 control), trans-stimulation: total [3H]CQ transport, normalised to the oocyte type control; for PfCRT-mediated [3H]CQ transport, trans-stimulation (% PfCRT3D7 control): normalised to oocyte type control
Procedure, shortened: as §2

PfCRT^Ecu1110 [5] = molecular target: T2, PfCRT^Ecu1110; assay: [3H]CQ uptake into Xenopus oocytes, cis-inhibition by unlabelled solute; type: cell-based; conditions: for Uptake of [3H]CQ (% PfCRTEcu1110 control), cis-inhibition / PfCRT-mediated [3H]CQ transport, cis-inhibition (% PfCRTEcu1110 control): PfCRTEcu1110 oocytes; for Uptake of [3H]CQ (% PfCRTEcu1110 control), cis-inhibition: total [3H]CQ transport, normalised to the oocyte type control; for PfCRT-mediated [3H]CQ transport, cis-inhibition (% PfCRTEcu1110 control): background [3H]CQ accumulation subtracted, normalised to oocyte type control; for [3H]CQ transport (% PfCRTEcu1110 control), cis-inhibition, PfCRTEcu1110: PfCRT-mediated component (background subtracted), sheet title says normalised to PfCRTDd2 control, mean ± SEM, SEM
Procedure, shortened: as §1

PfCRT^Dd2 [6] = molecular target: T4, PfCRT^Dd2; assay: as above; type: cell-based; conditions: PfCRTDd2 oocytes, background [3H]CQ accumulation subtracted, normalised to oocyte type control
Procedure, shortened: as §1

non-expressing oocytes [7] = assay: cells; type: cell-based, Xenopus laevis; conditions: non-expressing oocytes, total [3H]CQ transport, normalised to the oocyte type control
Procedure, shortened: as §1

non-expressing oocytes [8] = type: cell-based, Xenopus laevis; conditions: non-expressing oocytes, total [3H]CQ transport, normalised to the oocyte type control
Procedure, shortened: as §2

[9] = [test solute]i = 45 mM (30 mM for some solutes due to solubility)
[10] = [test solute]i = 5 mM (intracellular)
[11] = [test solute]i = 45 mM (intracellular; 30 mM for some solutes due to solubility)
[12] = [test solute]i = 5 mM (injected)

T1 sequence (Q8IBZ9 59-398): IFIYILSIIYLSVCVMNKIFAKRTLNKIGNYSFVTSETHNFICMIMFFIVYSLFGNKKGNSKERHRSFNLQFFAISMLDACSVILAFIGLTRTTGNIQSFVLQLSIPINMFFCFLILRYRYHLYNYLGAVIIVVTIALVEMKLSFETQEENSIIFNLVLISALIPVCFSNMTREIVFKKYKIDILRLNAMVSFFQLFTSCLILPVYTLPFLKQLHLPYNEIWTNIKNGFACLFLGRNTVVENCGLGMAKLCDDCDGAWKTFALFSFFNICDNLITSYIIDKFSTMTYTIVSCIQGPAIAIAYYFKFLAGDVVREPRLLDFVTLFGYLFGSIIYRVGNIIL

Substance: GGYR [GR-4]
- Uptake of [3H]CQ (% PfCRT3D7 control), cis-inhibition (PfCRT^3D7 [1]; [test solute] = 0.5 mM): 102 ± 4.3 % PfCRT3D7 control
- Uptake of [3H]CQ (% PfCRT3D7 control), cis-inhibition (PfCRT^3D7 [1]; [test solute] = 1 mM): 98 ± 4.8 % PfCRT3D7 control
- Uptake of [3H]CQ (% PfCRT3D7 control), cis-inhibition (PfCRT^3D7 [1]; [test solute] = 2 mM): 102 ± 5.8 % PfCRT3D7 control
- Uptake of [3H]CQ (% PfCRTEcu1110 control), trans-stimulation (PfCRT^Ecu1110 [2]; [test solute]i = 5 mM): 99 ± 3.2 % PfCRTEcu1110 control
- Uptake of [3H]CQ (% PfCRTEcu1110 control), trans-stimulation (PfCRT^Ecu1110 [2]; [9]): 100 ± 3.2 % PfCRTEcu1110 control
- PfCRT-mediated [3H]CQ transport, trans-stimulation (% PfCRTEcu1110 control) (PfCRT^Ecu1110 [2]; [10]): 97 ± 4.1 % PfCRTEcu1110 control
- PfCRT-mediated [3H]CQ transport, trans-stimulation (% PfCRTEcu1110 control) (PfCRT^Ecu1110 [2]; [11]): 98 ± 4.3 % PfCRTEcu1110 control
- [3H]CQ transport (% PfCRTDd2 control), trans-stimulation, PfCRTEcu1110 (PfCRT^Ecu1110 [2]; [12]): 29 ± 1.5 % PfCRTEcu1110 control
- [3H]CQ transport (% PfCRTDd2 control), trans-stimulation, PfCRTEcu1110 (PfCRT^Ecu1110 [2]; [9]): 30 ± 1.2 % PfCRTEcu1110 control
- Uptake of [3H]CQ (% PfNT1 control), trans-stimulation (PfNT1; [test solute]i = 5 mM): 99 ± 3.2 % PfNT1 control
- Uptake of [3H]CQ (% PfNT1 control), trans-stimulation (PfNT1; [9]): 100 ± 3.7 % PfNT1 control
- Uptake of [3H]CQ (% PfCRTDd2 control), trans-stimulation (PfCRT^Dd2 [3]; PfCRTDd2 oocytes, [test solute]i = 45 mM (30 mM for some solutes due to solubility), total [3H]CQ transport, normalised to the oocyte type control): 103 ± 3.6 % PfCRTDd2 control
- PfCRT-mediated [3H]CQ transport, trans-stimulation (% PfCRTDd2 control) (PfCRT^Dd2 [3]; [test solute]i = 5 mM (intracellular), PfCRTDd2 oocytes): 99 ± 2.9 % PfCRTDd2 control
- PfCRT-mediated [3H]CQ transport, trans-stimulation (% PfCRTDd2 control) (PfCRT^Dd2 [3]; [test solute]i = 45 mM (intracellular; 30 mM for some solutes due to solubility), PfCRTDd2 oocytes): 100 ± 4.9 % PfCRTDd2 control
- [3H]CQ transport (% PfCRTDd2 control), trans-stimulation, PfCRTDd2 (PfCRT^Dd2 [3]; [12]): 99 ± 2.9 % PfCRTDd2 control
- [3H]CQ transport (% PfCRTDd2 control), trans-stimulation, PfCRTDd2 (PfCRT^Dd2 [3]; [9]): 100 ± 4.9 % PfCRTDd2 control
- Uptake of [3H]CQ (% PfCRT3D7 control), trans-stimulation (PfCRT^3D7 [4]; [test solute]i = 5 mM): 100 ± 2.6 % PfCRT3D7 control
- Uptake of [3H]CQ (% PfCRT3D7 control), trans-stimulation (PfCRT^3D7 [4]; [9]): 99 ± 2.6 % PfCRT3D7 control
- PfCRT-mediated [3H]CQ transport, trans-stimulation (% PfCRT3D7 control) (PfCRT^3D7 [4]; [10]): 98 ± 3.3 % PfCRT3D7 control
- PfCRT-mediated [3H]CQ transport, trans-stimulation (% PfCRT3D7 control) (PfCRT^3D7 [4]; [11]): 97 ± 4.2 % PfCRT3D7 control
- Uptake of [3H]CQ (% PfCRTEcu1110 control), cis-inhibition (PfCRT^Ecu1110 [5]; [test solute] = 0.5 mM): 78 ± 6.9 % PfCRTEcu1110 control
- Uptake of [3H]CQ (% PfCRTEcu1110 control), cis-inhibition (PfCRT^Ecu1110 [5]; [test solute] = 1 mM): 65 ± 7.1 % PfCRTEcu1110 control
- Uptake of [3H]CQ (% PfCRTEcu1110 control), cis-inhibition (PfCRT^Ecu1110 [5]; [test solute] = 2 mM): 53 ± 4.7 % PfCRTEcu1110 control
- PfCRT-mediated [3H]CQ transport, cis-inhibition (% PfCRTEcu1110 control) (PfCRT^Ecu1110 [5]; [test solute] = 0.5 mM): 71 ± 2.5 % PfCRTEcu1110 control
- PfCRT-mediated [3H]CQ transport, cis-inhibition (% PfCRTEcu1110 control) (PfCRT^Ecu1110 [5]; [test solute] = 1 mM): 59 ± 2.4 % PfCRTEcu1110 control
- PfCRT-mediated [3H]CQ transport, cis-inhibition (% PfCRTEcu1110 control) (PfCRT^Ecu1110 [5]; [test solute] = 2 mM): 48 ± 3.1 % PfCRTEcu1110 control
- [3H]CQ transport (% PfCRTEcu1110 control), cis-inhibition, PfCRTEcu1110 (PfCRT^Ecu1110 [5]; [test solute] = 1 mM): 19 ± 0.1 % PfCRTEcu1110 control
- [3H]CQ transport (% PfCRTEcu1110 control), cis-inhibition, PfCRTEcu1110 (PfCRT^Ecu1110 [5]; [test solute] = 2 mM): 15 ± 0.6 % PfCRTEcu1110 control
- PfCRT-mediated [3H]CQ transport, cis-inhibition (% PfCRTDd2 control) (PfCRT^Dd2 [6]; [test solute] = 0.5 mM): 71 ± 2.9 % PfCRTDd2 control
- PfCRT-mediated [3H]CQ transport, cis-inhibition (% PfCRTDd2 control) (PfCRT^Dd2 [6]; [test solute] = 1 mM): 58 ± 4.2 % PfCRTDd2 control
- PfCRT-mediated [3H]CQ transport, cis-inhibition (% PfCRTDd2 control) (PfCRT^Dd2 [6]; [test solute] = 2 mM): 40 ± 2.1 % PfCRTDd2 control
- Uptake of [3H]CQ (% non-expressing oocyte control), cis-inhibition (non-expressing oocytes [7]; [test solute] = 0.5 mM): 99 ± 5.2 % non-expressing oocyte control
- Uptake of [3H]CQ (% non-expressing oocyte control), cis-inhibition (non-expressing oocytes [7]; [test solute] = 2 mM): 100 ± 3.6 % non-expressing oocyte control
- Uptake of [3H]CQ (% non-expressing oocyte control), trans-stimulation (non-expressing oocytes [8]; [test solute]i = 5 mM): 100 ± 2.7 % non-expressing oocyte control
- Uptake of [3H]CQ (% non-expressing oocyte control), trans-stimulation (non-expressing oocytes [8]; [9]): 97 ± 2.5 % non-expressing oocyte control
